Measured values as given in patent US6869957B1, “Non-peptide tachykinin receptor antagonists” (Eli Lilly and Company, priority 1993, dated 2005).

Legend:
NK-1 receptor = biological target: T1, NK-1 receptor (Homo sapiens, UniProt P25103); assay: NK-1 Receptor Binding Assay (125I-labeled substance P, IM9 cells); details: for IC50: inhibits fifty percent of binding of 125I-substance P to IM9 cells; for NK-1 percent inhibition of binding: @ 1 μM
T1 construct: endogenous in cells; host or cells: IM9 cells (human cell line), whole cells
Outline: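 Radioligand binding on human IM9 cells, ended by filtration over glass fiber filters presoaked in 0.1% polyethylenimine. Specific binding of labeled substance P defined with 20 nM unlabeled ligand.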

human NK-2 receptor = biological target: T2, human NK-2 receptor (Homo sapiens, UniProt P21452); assay: NK-2 Receptor Binding Assay ([125I]iodohistidyl-neurokinin A, CHO-hNK-2R membranes); details: for IC50: inhibits fifty percent of binding of [125I]iodohistidyl-neurokinin A to CHO-hNK-2R membranes
T2 construct: expressed in transfected cells; host or cells: CHO-hNK-2R cells (CHO-derived), membrane preparation
T2 sequence (P21452 1-398): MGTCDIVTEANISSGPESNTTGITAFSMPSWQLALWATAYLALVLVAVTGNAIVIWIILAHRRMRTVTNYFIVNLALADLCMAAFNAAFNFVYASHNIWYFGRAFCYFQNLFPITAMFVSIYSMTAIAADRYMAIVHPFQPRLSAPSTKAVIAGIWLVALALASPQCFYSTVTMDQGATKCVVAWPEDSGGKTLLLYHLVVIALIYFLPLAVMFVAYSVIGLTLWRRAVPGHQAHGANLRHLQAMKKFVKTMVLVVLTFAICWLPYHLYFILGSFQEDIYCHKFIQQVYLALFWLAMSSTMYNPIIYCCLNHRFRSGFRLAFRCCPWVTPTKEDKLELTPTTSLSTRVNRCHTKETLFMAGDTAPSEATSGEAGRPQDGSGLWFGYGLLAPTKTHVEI
Description: The biological activity of the compounds of the present invention was evaluated employing an initial screening assay which rapidly and accurately measured the binding of the tested compound to known NK-1 and NK-2 receptor sites. Assays useful for evaluating tachykinin receptor antagonists are well known in the art. See. e.g., J. Jukic, et al., Life Sciences, 49:1463-1469 (1991); N. Kucharczyk, et al., Journal of Medicinal Chemistry, 36:1654-1661 (1993); N. Rouissi, et al., Biochemical and Biophysical Research Communications, 176:894-901 (1991).
NK-2 Receptor Binding Assay
The CHO-hNK-2R cells, a CHO-derived cell line transformed with the human NK-2 receptor, expressing about 400,000 such receptors per cell, were grown in 75 cm^2 flasks or roller bottles in minimal essential medium (alpha modification) with 10% fetal bovine serum. The gene sequence of the human NK-2 receptor is given in N. P. Gerard, et al., Journal of Biological Chemistry, 265:20455-20462 (1990).
For preparation of membranes, 30 confluent roller bottle cultures were dissociated by washing each roller bottle with 10 ml of Dulbecco's phosphate buffered saline (PBS) without calcium and magnesium, followed by addition of 10 ml of enzyme-free cell dissociation solution (PBS-based, from Specialty Media, Inc.). After an additional 15 minutes, the dissociated cells were pooled and centrifuged at 1,000 RPM for 10 minutes in a clinical centrifuge. Membranes were prepared by homogenization of the cell pellets in 300 ml 50 mM Tris buffer, pH 7.4 with a Tekma® homogenizer for 10-15 seconds, followed by centrifugation at 12,000 RPM (20,000×g) for 30 minutes using a Beckman JA-14® rotor. The pellets were washed once using the above procedure. and the final pellets were resuspended in 100-120 ml 50 mM Tris buffer, pH 7.4, and 4 ml aliquots stored frozen at −70° C. The protein concentration of this preparation was 2 mg/ml.
For the receptor binding assay, one 4-ml aliquot of the CHO-hNK-2R membrane preparation was suspended in 40 ml of assay buffer containing 50 mM Tris, pH 7.4, 3 mM manganese chloride, 0.02% bovine serum albumin (BSA) and 4 μg/ml chymostatin. A 200 μl volume of the homogenate (40 μg protein) was used per sample. The radioactive ligand was [^125I]iodohistidyl-neurokinin A (New England Nuclear, NEX-252), 2200 Ci/mmol. The ligand was prepared in assay buffer at 20 nCi per 100 μl; the final concentration in the assay was 20 pM. Non-specific binding was determined using 1 μM eledoisin. Ten concentrations of eledoisin from 0.1 to 1000 nM were used for a standard concentration-response curve.
All samples and standards were added to the incubation in 10 μl dimethylsulfoxide (DMSO) for screening (single dose) or in 5 μl DMSO for IC50 determinations. The order of additions for incubation was 190 or 195 μl assay buffer, 200 μl homogenate, 10 or 5 μl sample in DMSO, 100 μl radioactive ligand. The samples were incubated 1 hr at room temperature and then filtered on a 48 well Brandel cell harvester through GF/B filters which had been presoaked for two hours in 50 mM Tris buffer, pH 7.7, containing 0.5% BSA. The filter was washed 3 times with approximately 3 ml of cold 50 mm Tris buffer, pH 7.7. The filter circles were then punched into 12×75 mm polystyrene tubes and counted in a gamma counter.

T1 sequence (P25103 whole entry): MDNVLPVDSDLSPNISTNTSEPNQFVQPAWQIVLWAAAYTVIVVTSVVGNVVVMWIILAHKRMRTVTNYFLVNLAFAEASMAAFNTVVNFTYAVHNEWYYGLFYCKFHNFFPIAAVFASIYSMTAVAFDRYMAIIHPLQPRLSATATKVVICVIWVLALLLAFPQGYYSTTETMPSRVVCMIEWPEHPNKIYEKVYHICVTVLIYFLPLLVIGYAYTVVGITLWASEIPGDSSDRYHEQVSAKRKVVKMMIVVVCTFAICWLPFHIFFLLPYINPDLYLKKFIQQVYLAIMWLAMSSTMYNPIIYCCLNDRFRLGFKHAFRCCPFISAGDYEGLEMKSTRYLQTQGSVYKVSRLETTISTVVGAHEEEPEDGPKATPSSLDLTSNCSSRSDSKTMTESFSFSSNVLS

COc1ccccc1CN(CC(Cc1c[nH]c2ccccc12)NC(=O)CN1CCN(C(C)=O)CC1)C(C)=O (centres unmarked) [Example 79]
IC50 (NK-1 receptor): 38 nM
IC50 (human NK-2 receptor): 6100 nM

CCOC(=O)N1CCN(CC(=O)NC(Cc2c[nH]c3ccccc23)CN(Cc2ccccc2OC)C(C)=O)CC1 (centres unmarked) [Example 80]
IC50 (NK-1 receptor): 19 nM
IC50 (human NK-2 receptor): 3400 nM

COc1ccccc1CN(CC(Cc1c[nH]c2ccccc12)NC(=O)CNCc1ccccn1)C(C)=O (centres unmarked) [Example 81]
IC50 (NK-1 receptor): 13 nM
IC50 (human NK-2 receptor): 1100 nM

COc1ccccc1CN(CC(Cc1c[nH]c2ccccc12)NC(=O)CNCc1cccnc1)C(C)=O (centres unmarked) [Example 82]
IC50 (NK-1 receptor): 13 nM
IC50 (human NK-2 receptor): 1200 nM

COc1ccccc1CN(CC(Cc1c[nH]c2ccccc12)NC(=O)CNCc1ccncc1)C(C)=O (centres unmarked) [Example 83]
IC50 (NK-1 receptor): 8.4 nM
IC50 (human NK-2 receptor): 5200 nM

COc1ccccc1CN(CC(Cc1c[nH]c2ccccc12)NC(=O)c1ccccc1)C(C)=O (centres unmarked) [Example 88]
IC50 (NK-1 receptor): 120 nM
IC50 (human NK-2 receptor): 5600 nM

COc1ccccc1CN(CC(Cc1c[nH]c2ccccc12)NC(=O)CCCc1ccccc1)C(C)=O (centres unmarked) [Example 94]
IC50 (NK-1 receptor): 85 nM
IC50 (human NK-2 receptor): 760 nM

COc1ccccc1CN(CC(Cc1c[nH]c2ccccc12)NC(=O)CCCC(=O)c1ccccc1)C(C)=O (centres unmarked) [Example 98]
IC50 (NK-1 receptor): 21 nM
IC50 (human NK-2 receptor): 600 nM

CC(=O)NC(Cc1c[nH]c2ccccc12)CN(C(C)=O)C(C)c1ccccc1 (centres unmarked) [Example 99]
NK-1 percent inhibition of binding (NK-1 receptor): 15% @
NK-2 percent inhibition of binding (human NK-2 receptor; @ 10 μM): 54% @

CC(=O)NC(Cc1c[nH]c2ccccc12)CN(C(C)=O)C(C)c1ccccc1 (centres unmarked) [Example 100]
NK-1 percent inhibition of binding (NK-1 receptor): 77% @
NK-2 percent inhibition of binding (human NK-2 receptor; @ 10 μM): 40% @

CC(NCC(Cc1c[nH]c2ccccc12)NC(=O)CN1CCC(N2CCCCC2)CC1)c1ccccc1 (centres unmarked) [Example 101]
IC50 (NK-1 receptor): 97 nM
IC50 (human NK-2 receptor): 6000 nM

CC(NCC(Cc1c[nH]c2ccccc12)NC(=O)CN1CCC(N2CCCCC2)CC1)c1ccccc1 (centres unmarked) [Example 102]
IC50 (NK-1 receptor): 210 nM
NK-2 percent inhibition of binding (human NK-2 receptor; @ 10 μM): 59% @

CC(=O)N(CC(Cc1c[nH]c2ccccc12)NC(=O)CN1CCC(N2CCCCC2)CC1)C(C)c1ccccc1 (centres unmarked) [Example 103]
IC50 (NK-1 receptor): 82 nM
IC50 (human NK-2 receptor): 3700 nM

CC(=O)N(CC(Cc1c[nH]c2ccccc12)NC(=O)CN1CCC(N2CCCCC2)CC1)C(C)c1ccccc1 (centres unmarked) [Example 104]
IC50 (NK-1 receptor): 0.62 nM
IC50 (human NK-2 receptor): 1600 nM

COc1ccccc1CNCC(Cc1c[nH]c2ccccc12)NC(C)=O (centres unmarked) [Example 105]
IC50 (NK-1 receptor): 630 nM
IC50 (human NK-2 receptor): 15200 nM

COc1ccccc1CN(CC(Cc1c[nH]c2ccccc12)NC(C)=O)C(C)=O (centres unmarked) [Example 106]
IC50 (NK-1 receptor): 68 nM
inhibition at 10 µM (human NK-2 receptor; @ 10 μM, read-out: NK-2 percent inhibition of binding): 33%

COc1ccccc1CN(CC(Cc1c[nH]c2ccccc12)NC(C)=O)C(=O)CN1CCN(c2ccccc2)CC1 (centres unmarked) [Example 107]
NK-1 percent inhibition of binding (NK-1 receptor): 74% @
IC50 (human NK-2 receptor): 420 nM

CC(=O)NC(Cc1c[nH]c2ccccc12)CN(Cc1ccccc1)C(=O)CN1CCC(N2CCCCC2)CC1 (centres unmarked) [Example 108]
NK-1 percent inhibition of binding (NK-1 receptor): 76% @
IC50 (human NK-2 receptor): 3500 nM

CC(=O)NC(Cc1c[nH]c2ccccc12)CN(Cc1ccccc1Cl)C(=O)CN1CCC(N2CCCCC2)CC1 (centres unmarked) [Example 109]
IC50 (NK-1 receptor): 190 nM
IC50 (human NK-2 receptor): 2000 nM

CC(=O)NC(Cc1c[nH]c2ccccc12)CN(CCc1ccccc1)C(=O)CN1CCN(c2ccccc2)CC1 (centres unmarked) [Example 110]
IC50 (NK-1 receptor): 148 nM
IC50 (human NK-2 receptor): 120 nM

COc1ccccc1CNCC(Cc1c[nH]c2ccc(Br)cc12)NC(=O)CN1CCN(c2ccccc2)CC1 (centres unmarked) [Example 111]
IC50 (NK-1 receptor): 1200 nM
IC50 (human NK-2 receptor): 490 nM

COc1ccccc1CN(CC(Cc1cn(C)c2ccccc12)NC(=O)CN1CCN(c2ccccc2)CC1)C(C)=O (centres unmarked) [Example 113]
IC50 (NK-1 receptor): 7.8 nM
IC50 (human NK-2 receptor): 1200 nM

COc1ccccc1CN(CC(Cc1c[nH]c2cc(C)ccc12)NC(=O)CN1CCN(c2ccccc2)CC1)C(C)=O (centres unmarked) [Example 114]
IC50 (NK-1 receptor): 29.2 nM
IC50 (human NK-2 receptor): 940 nM

COc1ccccc1CN(CC(Cc1c[nH]c2ccc(Br)cc12)NC(=O)CN1CCN(c2ccccc2)CC1)C(C)=O (centres unmarked) [Example 116]
IC50 (NK-1 receptor): 58 nM
IC50 (human NK-2 receptor): 930 nM

CC(=O)N(Cc1ccccc1)CC(Cc1c[nH]c2ccc(F)cc12)NC(=O)CN1CCC(N2CCCCC2)CC1 (centres unmarked) [Example 119]
IC50 (NK-1 receptor): 9.5 nM
IC50 (human NK-2 receptor): 2700 nM

COc1ccccc1CNCC(Cc1c[nH]c2cc(F)ccc12)NC(=O)CN1CCC(N2CCCCC2)CC1 (centres unmarked) [Example 123]
IC50 (NK-1 receptor): 27 nM
IC50 (human NK-2 receptor): 2500 nM

COc1ccccc1CN(CC(Cc1cn(C)c2ccccc12)NC(=O)CN1CCC(N2CCCCC2)CC1)C(C)=O (centres unmarked) [Example 124]
IC50 (NK-1 receptor): 0.93 nM
IC50 (human NK-2 receptor): 1400 nM

COc1ccccc1CN(CC(Cc1c[nH]c2cccc(C)c12)NC(=O)CN1CCC(N2CCCCC2)CC1)C(C)=O (centres unmarked) [Example 125]
IC50 (NK-1 receptor): 0.66 nM
IC50 (human NK-2 receptor): 2100 nM

COc1ccccc1CN(CC(Cc1c[nH]c2ccc(C)cc12)NC(=O)CN1CCC(N2CCCCC2)CC1)C(C)=O (centres unmarked) [Example 126]
IC50 (NK-1 receptor): 2.8 nM
IC50 (human NK-2 receptor): 3400 nM

COc1ccccc1CN(CC(Cc1c[nH]c2cc(C)ccc12)NC(=O)CN1CCC(N2CCCCC2)CC1)C(C)=O (centres unmarked) [Example 127]
IC50 (NK-1 receptor): 7.3 nM
IC50 (human NK-2 receptor): 3000 nM

COc1ccccc1CNCC(Cc1cccc2ccccc12)NC(=O)CN1CCN(c2ccccc2)CC1 (centres unmarked) [Example 135]
NK-1 percent inhibition of binding (NK-1 receptor): 75% @
IC50 (human NK-2 receptor): 430 nM

COc1ccccc1CNCC(Cc1ccc2ccccc2c1)NC(=O)CN1CCN(c2ccccc2)CC1 (centres unmarked) [Example 136]
NK-1 percent inhibition of binding (NK-1 receptor): 47% @
IC50 (human NK-2 receptor): 710 nM

COc1ccccc1CN(CC(NC(=O)CN1CCN(c2ccccc2)CC1)c1ccccc1)C(C)=O (centres unmarked) [Example 138]
IC50 (NK-1 receptor): 770 nM
IC50 (human NK-2 receptor): 2500 nM

COc1ccccc1CN(CC(NC(=O)CN1CCN(c2ccccc2)CC1)c1ccc(Cl)c(Cl)c1)C(C)=O (centres unmarked) [Example 139]
IC50 (NK-1 receptor): 396 nM
IC50 (human NK-2 receptor): 580 nM

COc1ccccc1CN(CC(Cc1ccccc1)NC(=O)CN1CCN(c2ccccc2)CC1)C(C)=O (centres unmarked) [Example 140]
IC50 (NK-1 receptor): 3.1 nM
IC50 (human NK-2 receptor): 3000 nM

COc1ccccc1CN(CC(Cc1cccc2ccccc12)NC(=O)CN1CCN(c2ccccc2)CC1)C(C)=O (centres unmarked) [Example 141]
IC50 (NK-1 receptor): 11 nM
IC50 (human NK-2 receptor): 260 nM

COc1ccccc1CN(CC(Cc1ccc2ccccc2c1)NC(=O)CN1CCN(c2ccccc2)CC1)C(C)=O (centres unmarked) [Example 142]
IC50 (NK-1 receptor): 8.6 nM
IC50 (human NK-2 receptor): 830 nM

COc1ccccc1CN(CC(NC(=O)CN1CCC(N2CCCCC2)CC1)c1ccccc1)C(C)=O (centres unmarked) [Example 146]
IC50 (NK-1 receptor): 420 nM
IC50 (human NK-2 receptor): 3900 nM

COc1ccccc1CN(CC(NC(=O)CN1CCC(N2CCCCC2)CC1)c1ccc(Cl)c(Cl)c1)C(C)=O (centres unmarked) [Example 147]
IC50 (NK-1 receptor): 196 nM
IC50 (human NK-2 receptor): 430 nM

COc1ccccc1CN(CC(Cc1ccccc1)NC(=O)CN1CCC(N2CCCCC2)CC1)C(C)=O (centres unmarked) [Example 148]
IC50 (NK-1 receptor): 24 nM
IC50 (human NK-2 receptor): 8500 nM
